Measurements as given in patent publication US9474275B2, “Cyanoenamines and their use as fungicides” (priority 2010, dated 2016).

How the values were obtained:
[1] = test system: Phytophthora infestans; assay type: in vivo; details: tomato plants, preventive spray, 500 ppm of active ingredient, evaluated 7 days after inoculation; 0% = untreated control, 100% = no disease
[2] = method [a]: LC-MS at pH 2.7, 0.1% formic acid in water / acetonitrile, linear gradient 10% to 95% acetonitrile

Compound | efficacy [1] | LogP [2]
CCCC(=O)C(C#N)=C(NC(C)C(C)OC)c1cccnc1Cl (mixture of isomers) [Compound 114] | 95% | 3.02^[a]
CCCC(=O)C(C#N)=C(NC(C)c1ccco1)c1cccnc1Cl (racemic) [Compound 99] | – | 3.31^[a]
CCCC(=O)C(C#N)=C(NC(C)C1=NOCC1)c1cccnc1Cl (racemic) [Compound 100] | 95% | 2.47^[a]
CCCC(=O)C(C#N)=C(NC(C)C1(C)CC1)c1cccnc1Cl (racemic) [Compound 103] | 95% | 3.57^[a]
CCCC(=O)C(C#N)=C(NC(C)C1CCC1)c1cccnc1Cl (racemic) [Compound 104] | 95% | 3.81^[a]
CCCC(=O)C(C#N)=C(NC(C)c1nc(C)c(C)s1)c1cccnc1Cl (racemic) [Compound 105] | – | 3.02^[a]
C#CC(C)NC(=C(C#N)C(=O)CCC)c1cccnc1Cl (racemic) [Compound 112] | 83% | 2.9^[a]
CC#CC(C)NC(=C(C#N)C(=O)CCC)c1cccnc1Cl (racemic) [Compound 113] | 85% | 3.09^[a]
CCCC(=O)C(C#N)=C(NC(C)CC(C)C)c1cccnc1Cl (racemic) [Compound 115] | – | 3.99^[a]
CCCC(=O)C(C#N)=C(NC(C)CCc1ccccc1)c1cccnc1Cl (racemic) [Compound 116] | 85% | 4.16^[a]
CCCC(=O)C(C#N)=C(NC(C)CCC)c1cccnc1Cl (racemic) [Compound 117] | 80% | 3.65^[a]
CCCC(=O)C(C#N)=C(NC(C)CC1CC1)c1cccnc1Cl (racemic) [Compound 118] | – | 3.63^[a]
CCCC(=O)C(C#N)=C(NC(C)C1(C)CC1)c1cn(C)nc1C(F)F (racemic) [Compound 121] | 93% | 3.33^[a]
CCCC(=O)C(C#N)=C(NC(C)CC)c1cn(C)nc1C(F)F (racemic) [Compound 122] | 90% | 2.98^[a]
CCCC(=O)C(C#N)=C(NC(C)c1nc(C)c(C)s1)c1cn(C)nc1C(F)F (racemic) [Compound 123] | – | 2.92^[a]
C#CC(C)NC(=C(C#N)C(=O)CCC)c1cn(C)nc1C(F)F (racemic) [Compound 124] | 93% | 2.66^[a]
CC#CC(C)NC(=C(C#N)C(=O)CCC)c1cn(C)nc1C(F)F (racemic) [Compound 125] | 75% | 2.98^[a]
CCCC(=O)C(C#N)=C(NC(C)CC(C)C)c1cn(C)nc1C(F)F (racemic) [Compound 127] | – | 3.63^[a]
CCCC(=O)C(C#N)=C(NC(C)CCc1ccccc1)c1cn(C)nc1C(F)F (racemic) [Compound 128] | – | 3.83^[a]
CCCC(=O)C(C#N)=C(NC(C)CCC)c1cn(C)nc1C(F)F (racemic) [Compound 129] | 75% | 3.33^[a]
CCCC(=O)C(C#N)=C(NC(C)CC1CC1)c1cn(C)nc1C(F)F (racemic) [Compound 130] | 85% | 3.35^[a]
CCCC(=O)C(C#N)=C(NC(C)C(=O)OCC)c1cn(C)nc1C(F)F (racemic) [Compound 131] | 80% | 2.78^[a]
CCCC(=O)C(C#N)=C(NC(C)c1ccco1)c1cn(C)nc1C(F)F (racemic) [Compound 132] | 90% | 3.04^[a]
COCC(=O)C(C#N)=C(NC(C)c1ccccn1)c1cccnc1Cl (stereo not drawn) [Compound 1] | 93% | 1.78^[a]
CC(C)C(C)NC(=C(C#N)C(=O)C1(Cl)CC1)c1cccnc1Cl (stereo not drawn) [Compound 3] | – | 3.44^[a]
CC(C)C(C)NC(=C(C#N)C(=O)C1CCCCO1)c1cccnc1Cl (stereo not drawn) [Compound 6] | – | 3.00^[a]
CC(C)C(C)NC(=C(C#N)C(=O)C1CCCC1)c1cccnc1Cl (stereo not drawn) [Compound 7] | – | 4.23^[a]

Compound | efficacy [1] | LogP [2]
CC(NC(=C(C#N)C(=O)Cc1ccccc1)c1cccnc1Cl)C1CC1 (stereo not drawn) [Compound 8] | – | 3.23^[a]
CC(C)C(=O)C(C#N)=C(NC(C)C(C)C)c1cccnc1Cl (stereo not drawn) [Compound 9] | – | 3.60^[a]
CC(NC(=C(C#N)C(=O)C1CCC1)c1cccnc1Cl)C1CC1 (stereo not drawn) [Compound 12] | – | 3.44^[a]
CC(C)C(C)NC(=C(C#N)C(=O)CN(C)C)c1cccnc1Cl (stereo not drawn) [Compound 13] | – | 1.39^[a]
CC(NC(=C(C#N)C(=O)C1CCCC1)c1cccnc1Cl)C1CC1 (stereo not drawn) [Compound 14] | – | 3.83^[a]
CNCC(=O)C(C#N)=C(NC(C)C(C)C)c1cccnc1Cl (stereo not drawn) [Compound 15] | – | 1.50^[a]
CC(C)OCC(=O)C(C#N)=C(NC(C)C(C)C)c1cccnc1Cl (stereo not drawn) [Compound 19] | – | 3.19^[a]
CC(NC(=C(C#N)C(=O)C1CCCC1)c1cn(C)nc1C(F)F)C1CC1 (stereo not drawn) [Compound 21] | – | 3.58^[a]
CCC(=O)C(C#N)=C(NC(C)C1CC1)c1cccnc1Cl (stereo not drawn) [Compound 22] | – | 2.88^[a]
CC(C)C(C)NC(=C(C#N)C(=O)Cc1ccccc1)c1cccnc1Cl (stereo not drawn) [Compound 29] | – | 3.85^[a]
CCCC(=O)C(C#N)=C(NC1CC1CC)c1cccnc1Cl (stereo not drawn) [Compound 31] | – | 3.51^[a]
CC(C)C(C)NC(=C(C#N)C(=O)CCl)c1cn(C)nc1C(F)F (stereo not drawn) [Compound 32] | – | 2.86^[a]
CC(C)C(C)NC(=C(C#N)C(=O)CN1CCCC1)c1cccnc1Cl (stereo not drawn) [Compound 35] | – | 1.52^[a]
CCC(F)(F)C(=O)C(C#N)=C(NC(C)C(C)C)c1cccnc1Cl (stereo not drawn) [Compound 37] | – | 3.55^[a]
CCCCC(=O)C(C#N)=C(NC1CC1CC)c1cccnc1Cl (stereo not drawn) [Compound 38] | – | 3.94^[a]
CC(C)C(C)NC(=C(C#N)C(=O)CNC1CC1)c1cccnc1Cl (stereo not drawn) [Compound 39] | – | 1.74^[a]
COCC(=O)C(C#N)=C(NC(C)C(C)C)c1cccnc1Cl (stereo not drawn) [Compound 41] | – | 2.48^[a]
CC(NC(=C(C#N)C(=O)C1CC1)c1cccnc1Cl)C1CC1 (stereo not drawn) [Compound 42] | – | 3.06^[a]
CCCC(=O)C(C#N)=C(NC(C)C1CC1)c1cccnc1Cl (stereo not drawn) [Compound 43] | – | 3.25^[a]
CC(C)C(C)NC(=C(C#N)C(=O)CCl)c1cccnc1Cl (stereo not drawn) [Compound 45] | – | 3.02^[a]
CSCC(=O)C(C#N)=C(NC(C)C(C)C)c1cccnc1Cl (stereo not drawn) [Compound 46] | – | 3.13^[a]
CC(C)C(C)NC(=C(C#N)C(=O)c1ccco1)c1cccnc1Cl (stereo not drawn) [Compound 48] | – | 3.11^[a]
COCC(=O)C(C#N)=C(NC(C)C1CC1)c1cccnc1Cl (stereo not drawn) [Compound 49] | – | 2.23^[a]
CNCC(=O)C(C#N)=C(NC(C)C(C)C)c1cn(C)nc1C(F)F (stereo not drawn) [Compound 50] | – | 1.60^[a]
CC(C)C(C)NC(=C(C#N)C(=O)C1CCCCC1)c1cccnc1Cl (stereo not drawn) [Compound 53] | – | 4.50^[a]
CC(NC(=C(C#N)C(=O)CC1CC1)c1cccnc1Cl)C1CC1 (stereo not drawn) [Compound 54] | – | 3.31^[a]
CC(NC(=C(C#N)C(=O)c1ccco1)c1cccnc1Cl)C1CC1 (stereo not drawn) [Compound 55] | – | 2.80^[a]

Compound | efficacy [1] | LogP [2]
CCNCC(=O)C(C#N)=C(NC(C)C(C)C)c1cccnc1Cl (stereo not drawn) [Compound 57] | – | 1.68^[a]
CC(C)C(C)NC(=C(C#N)C(=O)CNC1CC1)c1cn(C)nc1C(F)F (stereo not drawn) [Compound 58] | – | 1.78^[a]
CCNCC(=O)C(C#N)=C(NC(C)C(C)C)c1cn(C)nc1C(F)F (stereo not drawn) [Compound 60] | – | 1.63^[a]
CC(C)C(C)NC(=C(C#N)C(=O)C1CC1C)c1cccnc1Cl (stereo not drawn) [Compound 61] | – | 3.80^[a]
COCCC(=O)C(C#N)=C(NC(C)C(C)C)c1cccnc1Cl (stereo not drawn) [Compound 65] | – | 2.78^[a]
CC(C)C(C)NC(=C(C#N)C(=O)CN1CCCC1)c1cn(C)nc1C(F)F (stereo not drawn) [Compound 66] | – | 1.31^[a]
COC(C)C(=O)C(C#N)=C(NC(C)C(C)C)c1cccnc1Cl (stereo not drawn) [Compound 67] | – | 2.70^[a]
CCC(=O)C(C#N)=C(NC1CC1CC)c1cccnc1Cl (stereo not drawn) [Compound 68] | – | 3.13^[a]
CCC(=O)C(C#N)=C(NC(C)C1CC1)c1cn(C)nc1C(F)F (stereo not drawn) [Compound 69] | – | 2.73^[a]
CC(C)C(C)NC(=C(C#N)C(=O)C1CC1)c1cccnc1Cl (stereo not drawn) [Compound 71] | – | 3.39^[a]
CC(C)C(C)NC(=C(C#N)C(=O)CCCCl)c1cccnc1Cl (stereo not drawn) [Compound 74] | – | 3.63^[a]
CCC(C)C(=O)C(C#N)=C(NC(C)C(C)C)c1cccnc1Cl (stereo not drawn) [Compound 76] | – | 3.9^[a]
COCC(=O)C(C#N)=C(NC(C)c1nccs1)c1cccnc1Cl (stereo not drawn) [Compound 77] | 93% | –
CC(C)C(C)NC(=C(C#N)C(=O)C1CCCC1)c1cn(C)nc1C(F)F (stereo not drawn) [Compound 78] | – | 3.81^[a]
CCCC(=NOC)C(C#N)=C(NC(C)C(C)C)c1cn(C)nc1C(F)F (stereo not drawn) [Compound 79] | – | 4.24^[a]
COCC(=O)C(C#N)=C(NC(C)c1nccs1)c1cn(C)nc1C(F)F (stereo not drawn) [Compound 82] | – | 1.76^[a]
CCCC(=O)C(C#N)=C(NC(C)C(C)C)c1cc(C)nn1C(F)F (stereo not drawn) [Compound 92] | – | 3.92^[a]
Cc1cc(C(NC(C)C(C)C)=C(C#N)C(=O)CC2CC2)n(C(F)F)n1 (stereo not drawn) [Compound 93] | – | 3.87^[a]
CCCC(=O)C(C#N)=C(NC(C)c1nccs1)c1cc(C)nn1C(F)F (stereo not drawn) [Compound 94] | – | 3.11^[a]
CCCC(=O)C(C#N)=C(NC(C)COC)c1cc(C)nn1C(F)F (stereo not drawn) [Compound 95] | – | 3.13^[a]
COCC(C)NC(=C(C#N)C(=O)CC1CC1)c1cc(C)nn1C(F)F (stereo not drawn) [Compound 96] | – | 3.11^[a]
Cc1cc(C(NC(C)c2nccs2)=C(C#N)C(=O)CC2CC2)n(C(F)F)n1 (stereo not drawn) [Compound 97] | – | 3.09^[a]
CCCC(=O)C(C#N)=C(NC(C)Cc1ccccc1)c1cccnc1Cl (stereo not drawn) [Compound 108] | – | 3.83^[a]
CCCC(=O)C(C#N)=C(NC(C)C(=O)NC)c1cn(C)nc1C(F)F (stereo not drawn) [Compound 109] | – | 1.79^[a]
CCCC(=O)C(C#N)=C(NC(C)Cc1ccccc1)c1cn(C)nc1C(F)F (stereo not drawn) [Compound 111] | – | 3.55^[a]
